Values quoted from earlier work in patent US20130096060A1, “GLP-1 AGONIST FOR USE IN THE TREATMENT OF STENOSIS OR/AND OBSTRUCTION IN THE PANCREATIC DUCT SYSTEM” (priority 2011, published 2013).

Tests used:
[1] = system: acinar cells of the guinea pig pancreas; conditions: by interaction with exendin receptors (Raufman, 1996)
[2] = system: acinar cells of the pancreas; conditions: in contrast to exendin-4

Row | Substance | cellular cAMP production [1] | amylase release [2]
1 | exendin-3: peptide of the exendin group, able to lower blood glucose concentrations | stimulate an increase | produces an increase
2 | exendin-4: peptide of the exendin group, 39 AS, SEQ ID NO: 2, able to lower blood glucose concentrations | stimulate an increase | 
